Data published in patent US5817840A, “Water soluble taxol derivatives” (The Scripps Research Institute, priority 1997, dated 1998).
Like-named read-outs stand apart in the source and are kept apart here.

Experiments:
[1] = test system: PC-3 (human prostate adenocarcinoma); test: Cytotoxicity, Example 8; assay type: cell-based
Experimental: (§1) Tumor or normal cells were cultured in 96-well plates with the test compound in 200 μl of RPMI supplemented with 10% fetal bovine serum (Hyclone, Salt Lake City, Utah) at 37° C. in a humidified atmosphere containing 5% CO2 in air for 72 hours. Sulforhodamine B dissolved in 1% acetic acid was added, and the plates were incubated for 30 minutes at ambient temperature, washed with 1% acetic acid, and blotted. To the air-dried plates were added 100 μl of […] unbuffered TRIS base (pH 10.5) with shaking. The optical densities of the plates were measured with a microplate reader (Molecular Devices Thermomax) at 540 nm. The concentration of compound required to reduce the absorbance to 50% of control samples was recorded as IC50.
(§2) NHDF: Normal human dermal fibroblast (available from Clouelics Corp., San Diego, Calif.); HLF-1: Normal human diploid lung; W1-38; Normal human diploid lung; CHO; Chinese hamster ovary; SK-MEL-28: Melanoma; CAPAN-1: Pancreatic carcinoma; H322: lung carcinoma; MCF-7; Breast carcinoma; BT-549; Human breast ductal carcinoma; OVCAR-3: Human ovarian carcinoma; HT-29: Human adenocarcinoma, colon; SIHA: Human squamous carcinoma crvx; 786-0: Human perirenal cell adenocarci; PC-3: Human prostate adenocarcinoma; HL-60: Human promyelomic leukemia; MOLT-4: Human T-cell leukemia. All cell lines except NHDF are available from the American Tissue Culture Collection, Rockville, Md.

MCF-7 (breast carcinoma) [2] = test: Cytotoxicity, Example 8; assay type: cell-based; conditions: Homo sapiens
Experimental: as §1, §2

[3] = test system: W1-38 (normal human diploid lung); test: Cytotoxicity, Example 8; assay type: cell-based
Experimental: as §1, §2

[4] = test system: S1HA (human squamous carcinoma crvx); test: Cytotoxicity, Example 8; assay type: cell-based
Experimental: as §1, §2

[5] = test system: 786-0 (human perirenal cell adenocarci); test: Cytotoxicity, Example 8; assay type: cell-based
Experimental: as §1, §2

[6] = test system: CHO (Chinese hamster ovary); test: Cytotoxicity, Example 8; assay type: cell-based; conditions: Cricetulus griseus
Experimental: as §1, §2

SK-MEL-28 (melanoma) = test: Cytotoxicity, Example 8; assay type: cell-based; conditions: Homo sapiens
Experimental: as §1, §2

[7] = test system: OVCAR-3 (human ovarian carcinoma); test: Cytotoxicity, Example 8; assay type: cell-based
Experimental: as §1, §2

[8] = test system: NHDF (normal human dermal fibroblast); test: Cytotoxicity, Example 8; assay type: cell-based
Experimental: as §1, §2

[9] = test system: HLF-1 (normal human diploid lung); test: Cytotoxicity, Example 8; assay type: cell-based
Experimental: as §1, §2

H322 (lung carcinoma) [10] = test: Cytotoxicity, Example 8; assay type: cell-based
Experimental: as §1, §2

[11] = test system: HT-29 (human adenocarcinoma, colon); test: Cytotoxicity, Example 8; assay type: cell-based
Experimental: as §1, §2

[12] = test system: CAPAN-1 (pancreatic carcinoma); test: Cytotoxicity, Example 8; assay type: cell-based; conditions: Homo sapiens
Experimental: as §1, §2

[13] = test system: BT-549 (human breast ductal carcinoma); test: Cytotoxicity, Example 8; assay type: cell-based
Experimental: as §1, §2

SIHA (cervix carcinoma) = test: Cytotoxicity (sulphorhodamine B), cancer cell line, Table 1B; assay type: cell-based; conditions: Homo sapiens, SiHa, 72 h
NHDF (normal human skin) = test: Cytotoxicity (sulphorhodamine B), normal cell line, Table 1B; assay type: cell-based; conditions: 72 h
[14] = test system: OVCAR-3 (ovarian carcinoma); test: Cytotoxicity (sulphorhodamine B), cancer cell line, Table 1B; assay type: cell-based; conditions: Homo sapiens, OVCAR-3, 72 h
HT-29 (colon carcinoma) = test: as above; assay type: cell-based; conditions: Homo sapiens, HT-29, 72 h
L1210 (mouse leukaemia) = test: as above; assay type: cell-based; conditions: L1210, 72 h
[15] = test system: CHO (Chinese hamster ovary); test: Cytotoxicity (sulphorhodamine B), normal cell line, Table 1B; assay type: cell-based; conditions: Cricetulus griseus, 72 h
H322 (lung carcinoma) [16] = test: Cytotoxicity (sulphorhodamine B), cancer cell line, Table 1B; assay type: cell-based; conditions: NCI-H322, 72 h
[17] = test system: HL-60 (promyel carcinoma); test: as above; assay type: cell-based; conditions: Homo sapiens, HL-60, 72 h
[18] = test system: CHO (normal human mammary); test: Cytotoxicity (sulphorhodamine B), normal cell line, Table 1B; assay type: cell-based; conditions: Homo sapiens, 72 h
Capan-1 (pancreatic) = test: Cytotoxicity (sulphorhodamine B), cancer cell line, Table 1B; assay type: cell-based; conditions: Homo sapiens, CAPAN-1, 72 h
[19] = test system: BT-549 (breast carcinoma); test: as above; assay type: cell-based; conditions: Homo sapiens, BT-549, 72 h
[20] = test system: MOLT-4 (T-cell leukaemia); test: as above; assay type: cell-based; conditions: Homo sapiens, MOLT-4, 72 h
[21] = test system: BALB/c 3T3 (normal mouse embryo); test: Cytotoxicity (sulphorhodamine B), normal cell line, Table 1B; assay type: cell-based; conditions: BALB/c3T3, 72 h
SK (melanoma) = test: Cytotoxicity (sulphorhodamine B), cancer cell line, Table 1B; assay type: cell-based; conditions: 72 h
[22] = test system: PC-3 (prostate carcinoma); test: as above; assay type: cell-based; conditions: Homo sapiens, 72 h
[23] = test system: broad spectrum of cell lines; test: Cytotoxicity against a broad spectrum of cell lines (overall); conditions: three-day exposure; compared with taxol
Experimental: The protaxols synthesized in this study were tested against a broad spectrum of cell lines ranging from the multiple-drug resistant ovarian (OVCAR-3) to lung (H-322) and leukemia (MOLT-4) cells in order to assess cytotoxicity, cell-type selectivity, and duration of action.
The cytotoxicities were determined using the sulphorhodamine B assay method (Skehan, P. et al. J. Nat. Canc. Inst. 82, 1107 (1990)).

[24] = test system: RPMI-7666 (normal human PBLs); test: Cytotoxicity (sulphorhodamine B), normal cell line, Table 1B; assay type: cell-based; conditions: 72 h
[25] = test system: 786-0 (renal cell carcinoma); test: Cytotoxicity (sulphorhodamine B), cancer cell line, Table 1B; assay type: cell-based; conditions: Homo sapiens, 786-0, 72 h
[26] = test system: UCLA-P-3 (lung carcinoma); test: as above; assay type: cell-based; conditions: Homo sapiens, UCLA P-3, 72 h
MCF-7 (breast carcinoma) [27] = test: as above; assay type: cell-based; conditions: Homo sapiens, MCF7, 72 h

With CC(=O)O[C@H]1C(=O)[C@@]2(C)[C@H]([C@H](OC(=O)c3ccccc3)[C@]3(O)C[C@H](OC(=O)[C@H](OC(=O)CSCC(=O)O)[C@@H](NC(=O)c4ccccc4)c4ccccc4)C(C)=C1C3(C)C)[C@]1(OC(C)=O)CO[C@@H]1C[C@@H]2O [Compound 4, 2'-thiodiglycolic taxol] the IC50 ([1]; 72 h) was 100 µM, the IC50 (MCF-7 (breast carcinoma) [2]; MCF7, 72 h) was 100 µM and the IC50 ([3]; W138, 72 h) was 13 µM. For the same compound, the IC50 ([4]; 72 h) was 50 µM, the IC50 ([5]; 786-0, 72 h) was 6.3 µM and the IC50 ([6]; 72 h) was 50 µM. The IC50 (SK-MEL-28 (melanoma); SK-MEL-28, 72 h) was 100 µM, the IC50 ([7]; OVCAR-3, 72 h) was 0.39 µM and the IC50 ([8]; 72 h) was 50 µM. It also gave an IC50 ([9]; HLF1, 72 h) of 3.1 µM, an IC50 (H322 (lung carcinoma) [10]; NCI-H322, 72 h) of 3.1 µM and an IC50 ([11]; HT-29, 72 h) of 0.19 µM. For the same compound, the IC50 ([12]; CAPAN-1, 72 h) was 0.19 µM and the IC50 ([13]; BT-549, 72 h) was 16 µM.
CC(=O)O[C@H]1C(=O)[C@@]2(C)[C@H]([C@H](OC(=O)c3ccccc3)[C@]3(O)C[C@H](OC(=O)[C@H](OC(=O)C[S+]([O-])CC(=O)O)[C@@H](NC(=O)c4ccccc4)c4ccccc4)C(C)=C1C3(C)C)[C@]1(OC(C)=O)CO[C@@H]1C[C@@H]2O (stereo partly shown) [Example 3a] was tested, and the IC50 ([1]; PC-3, 72 hours, read-out: IC50) was 50 µM, the IC50 (MCF-7 (breast carcinoma) [2]; MCF7, MCF-7, 72 hours, read-out: IC50) was 39.2 µM and the IC50 ([3]; W138, W1-38, 72 hours, read-out: IC50) was 25 µM. For the same compound, the IC50 ([4]; S1HA, 72 hours, read-out: IC50) was 25 µM, the IC50 ([5]; 786-0, 72 hours, read-out: IC50) was 0.15 µM and the IC50 ([6]; CHO, 72 hours, read-out: IC50) was 100 µM. The IC50 (SK-MEL-28 (melanoma); SK-MEL-28, 72 hours, read-out: IC50) was 100 µM, the IC50 ([7]; OVCAR-3, 72 hours, read-out: IC50) was 0.098 µM and the IC50 ([8]; 72 hours, read-out: IC50) was 50 µM. It also gave an IC50 ([9]; HLF1, HLF-1, 72 hours, read-out: IC50) of 25 µM, an IC50 (H322 (lung carcinoma) [10]; NCI-H322, H322, 72 hours, read-out: IC50) of 8.3 µM and an IC50 ([11]; HT-29, 72 hours, read-out: IC50) of 0.098 µM. It also gave an IC50 ([12]; Capan-1, 72 hours, read-out: IC50) of 0.87 µM and an IC50 ([13]; BT-549, 72 hours, read-out: IC50) of 0.098 µM.
With CC(=O)O[C@H]1C(=O)[C@@]2(C)[C@H]([C@H](OC(=O)c3ccccc3)[C@]3(O)C[C@H](OC(=O)[C@H](OC(=O)COCC(=O)O)[C@@H](NC(=O)c4ccccc4)c4ccccc4)C(C)=C1C3(C)C)[C@]1(OC(C)=O)CO[C@@H]1C[C@@H]2O [Compound 3] the IC50 ([1]; 72 h) was 65.1 µM, the IC50 (MCF-7 (breast carcinoma) [2]; MCF7, 72 h) was 357 µM and the IC50 ([3]; W138, 72 h) was 51.9 µM. It also gave an IC50 ([4]; 72 h) of 1120 µM, an IC50 ([5]; 786-0, 72 h) of 0.153 µM and an IC50 ([6]; 72 h) of 101 µM. For the same compound, the IC50 (SK-MEL-28 (melanoma); SK-MEL-28, 72 h) was 100 µM, the IC50 ([7]; OVCAR-3, 72 h) was 0.098 µM and the IC50 ([8]; 72 h) was 103 µM. The IC50 ([9]; HLF1, 72 h) was 59.5 µM, the IC50 (H322 (lung carcinoma) [10]; NCI-H322, 72 h) was 205 µM and the IC50 ([11]; HT-29, 72 h) was 0.01 µM. The IC50 ([12]; CAPAN-1, 72 h) was 0.098 µM and the IC50 ([13]; BT-549, 72 h) was 51.4 µM.
Work on CC(=O)O[C@H]1C(=O)[C@@]2(C)[C@H]([C@H](OC(=O)c3ccccc3)[C@]3(O)C[C@H](OC(=O)[C@H](OC(=O)OCCS(=O)(=O)c4ccc([N+](=O)[O-])cc4)[C@@H](NC(=O)c4ccccc4)c4ccccc4)C(C)=C1C3(C)C)[C@]1(OC(C)=O)CO[C@@H]1C[C@@H]2O [Compound 9] yielded an IC50 (SIHA (cervix carcinoma)) of 10 µM, an IC50 (NHDF (normal human skin)) of 1 µM and an IC50 [14] of 1 µM. The IC50 (HT-29 (colon carcinoma)) was 0.1 µM, the IC50 (L1210 (mouse leukaemia)) was 1 µM and the IC50 [15] was 100 µM. It also gave an IC50 (H322 (lung carcinoma) [16]) of 1 µM, an IC50 [17] of 0.1 µM and an IC50 [18] of 100 µM. It also gave an IC50 (Capan-1 (pancreatic)) of 1 µM, an IC50 [19] of 0.1 µM and an IC50 [20] of 0.001 µM. The IC50 [21] was 10 µM, the IC50 (SK (melanoma)) was 10 µM and the IC50 [22] was 1 µM. For the same compound, the “cytotoxicity (in words)” value [23] was “lower cytotoxicities”, the IC50 [24] was 100 µM and the IC50 [25] was 1 µM. For the same compound, the IC50 [26] was under 0.001 µM and the IC50 (MCF-7 (breast carcinoma) [27]) was 10 µM.
With COC(=O)CS(=O)(=O)CC(=O)O[C@@H](C(=O)O[C@H]1C[C@@]2(O)[C@@H](OC(=O)c3ccccc3)[C@@H]3[C@]4(OC(C)=O)CO[C@@H]4C[C@H](O)[C@@]3(C)C(=O)[C@H](OC(C)=O)C(=C1C)C2(C)C)[C@@H](NC(=O)c1ccccc1)c1ccccc1 [Compound 6] the IC50 (SIHA (cervix carcinoma)) was 100 µM, the IC50 (NHDF (normal human skin)) was 1 µM and the IC50 [14] was 1 µM. It also gave an IC50 (HT-29 (colon carcinoma)) of 0.1 µM, an IC50 (L1210 (mouse leukaemia)) of 10 µM and an IC50 [15] of 100 µM. The IC50 (H322 (lung carcinoma) [16]) was 0.1 µM, the IC50 [17] was 0.1 µM and the IC50 [18] was 100 µM. It also gave an IC50 (Capan-1 (pancreatic)) of 0.1 µM, an IC50 [19] of 0.001 µM and an IC50 [20] of 0.1 µM. It also gave an IC50 [21] of 10 µM, an IC50 (SK (melanoma)) of 10 µM and an IC50 [22] of 1 µM. For the same compound, the “cytotoxicity (in words)” value [23] was “lower cytotoxicities”, the IC50 [24] was 100 µM and the IC50 [25] was 10 µM. For the same compound, the IC50 [26] was under 0.001 µM and the IC50 (MCF-7 (breast carcinoma) [27]) was 10 µM.
